Patent US20060143718A1, “Transgenic animals for monitoring water quality” (priority 2000, published 2006)

Assays:
EPRE constructs = experiment: Transient transfection of LUC reporter constructs in zebrafish ZEM2S cells, EPRE constructs; format: cell-based
MRE constructs = experiment: Transient transfection of LUC reporter constructs in zebrafish ZEM2S cells, MRE constructs; format: cell-based
AHRE reporter constructs = experiment: Transient transfection of LUC reporter constructs in zebrafish ZEM2S cells, AHRE constructs; format: cell-based
[1] = cited from earlier work

**Q.** With CC(C)(C)c1cc(O)ccc1O [tBHQ] as the compound, how does the “concentration achieving maximal LUC activity” value (EPRE constructs) read?
**A.** Its value is 10 µM.

**Q.** Which “concentration achieving maximal LUC activity” value (MRE constructs) does the source give for [Cl][Cd][Cl] [CdCl2] here?
**A.** The value was 30 µM.

**Q.** Which “concentration achieving maximal LUC activity” value (AHRE reporter constructs) does the source give for Clc1cc2c(cc1Cl)Oc1cc(Cl)c(Cl)cc1O2 [TCDD, 2,3,7,8-tetrachlorodibenzo-p-dioxin] here?
**A.** The value was 10 nM.

**Q.** And the bioconcentration in fish [1]?
**A.** The bioconcentration in fish was 100,000 fold.

**Q.** And the bioconcentration ([1]; fish, in the food chain)?
**A.** The bioconcentration was > 100,000 times.
